Assay [1] addresses T1, hen egg white lysozyme (HEWL); hen egg lysozyme (Sigma) (Gallus gallus, UniProt P00698).
T1 construct: gene LYZ; native mature enzyme, 129 residues, commercial (Sigma) for tracer 2; endogenous in diluted egg white for tracer 1
Nature of the assay: fluorescence polarization, egg white. The format is biochemical. The note with it: 25 mM phosphate, 0.15 M NaCl, pH 7.4, 25 °C; tracer 3 nM; diluted egg white; labelled compound.

In assay [2] the target is T1, hen egg white lysozyme (HEWL); hen egg lysozyme (Sigma). Nature of the assay: fluorescence polarization. Type of assay: biochemical. The note with it: 25 mM phosphate, 0.15 M NaCl, pH 7.4, 25 °C; tracer 3 nM, HEWL 100 µg/mL, added after pre-incubation with non-reactive egg whites; labelled compound.

T1 sequence (P00698 19-147): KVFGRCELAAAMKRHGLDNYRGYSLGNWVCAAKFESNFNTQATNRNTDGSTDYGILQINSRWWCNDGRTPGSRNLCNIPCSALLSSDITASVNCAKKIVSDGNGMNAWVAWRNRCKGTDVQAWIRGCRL

For `CC(=O)N[C@H]1[C@H](OCCNC(=S)Nc2ccc3c(c2)C(=O)OC32c3ccc(O)cc3Oc3cc(O)ccc32)O[C@H](CO)[C@@H](O[C@@H]2O[C@H](CO)[C@@H](O[C@@H]3O[C@H](CO)[C@@H](O)[C@H](O)[C@H]3NC(C)=O)[C@H](O)[C@H]2NC(C)=O)[C@@H]1O` [compound 1, tracer 1], the “fluorescence polarization, egg white” value in assay [1] was “a rapid increase in the FP signal was observed, followed by a stable plateau (Figure 6b)”. On to `CC(=O)N[C@H]1[C@H](OCCNC(=S)Nc2ccc3c(c2)C(=O)OC32c3ccc(O)cc3Oc3cc(O)ccc32)O[C@H](CO)[C@@H](O[C@@H]2O[C@H](CO)[C@@H](O[C@@H]3O[C@H](CO)[C@@H](O[C@@H]4O[C@H](CO)[C@@H](O[C@@H]5O[C@H](CO)[C@@H](O)[C@H](O)[C@H]5NC(C)=O)[C@H](O)[C@H]4NC(C)=O)[C@H](O)[C@H]3NC(C)=O)[C@H](O)[C@H]2NC(C)=O)[C@@H]1O` [compound 2, tracer 2], for which the fluorescence polarization result in assay [2] is “A sharp increase in the FP signal followed by a decrease over time was observed”.
